Assay results: the Kinase Knowledgebase extract (Sharma et al. 2016)

Biological target: EGFR (human) (UniProt P00533)
Sequence (P00533 whole entry, looked up): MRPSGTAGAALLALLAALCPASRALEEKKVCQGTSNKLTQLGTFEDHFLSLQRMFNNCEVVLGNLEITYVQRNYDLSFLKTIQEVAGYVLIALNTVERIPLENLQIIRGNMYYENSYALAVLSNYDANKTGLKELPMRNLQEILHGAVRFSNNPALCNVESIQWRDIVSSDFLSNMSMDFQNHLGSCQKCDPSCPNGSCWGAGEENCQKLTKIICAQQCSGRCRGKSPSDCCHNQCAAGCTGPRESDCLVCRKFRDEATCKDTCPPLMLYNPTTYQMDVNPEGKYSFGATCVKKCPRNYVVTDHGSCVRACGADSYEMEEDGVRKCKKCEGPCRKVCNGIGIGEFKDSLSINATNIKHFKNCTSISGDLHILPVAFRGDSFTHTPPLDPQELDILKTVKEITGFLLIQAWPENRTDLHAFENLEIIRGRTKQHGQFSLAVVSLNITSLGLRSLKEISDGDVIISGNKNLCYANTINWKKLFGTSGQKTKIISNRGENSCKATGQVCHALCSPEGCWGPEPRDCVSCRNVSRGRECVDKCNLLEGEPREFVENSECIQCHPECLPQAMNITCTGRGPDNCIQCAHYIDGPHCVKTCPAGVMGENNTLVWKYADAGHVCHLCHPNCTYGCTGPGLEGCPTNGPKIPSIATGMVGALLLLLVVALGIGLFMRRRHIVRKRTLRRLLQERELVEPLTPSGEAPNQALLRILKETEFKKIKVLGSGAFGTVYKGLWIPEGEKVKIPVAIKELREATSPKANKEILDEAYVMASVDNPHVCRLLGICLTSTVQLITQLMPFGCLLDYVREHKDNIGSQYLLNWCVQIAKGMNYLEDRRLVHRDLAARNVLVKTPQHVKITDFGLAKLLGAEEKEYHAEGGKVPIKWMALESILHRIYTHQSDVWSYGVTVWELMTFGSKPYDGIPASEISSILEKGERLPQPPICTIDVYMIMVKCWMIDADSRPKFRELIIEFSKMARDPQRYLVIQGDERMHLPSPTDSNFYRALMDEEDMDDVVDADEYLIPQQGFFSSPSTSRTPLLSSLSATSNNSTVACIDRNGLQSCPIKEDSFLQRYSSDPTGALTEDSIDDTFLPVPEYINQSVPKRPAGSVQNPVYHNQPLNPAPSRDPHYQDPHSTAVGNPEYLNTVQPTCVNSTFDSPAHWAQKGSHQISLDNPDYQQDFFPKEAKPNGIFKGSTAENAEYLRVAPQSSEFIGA

First: CC(=O)N1CCN(c2ccc(Nc3nccc(-c4sc(C(C)C)nc4-c4cccc(NS(=O)(=O)c5cc(F)ccc5F)c4)n3)cn2)CC1
Second: CC(=O)N1CCN(c2ccc(Nc3nccc(-c4sc(C(C)C)nc4-c4cccc(NS(=O)(=O)c5ccccc5F)c4)n3)cn2)CC1
The IC50 of the first is higher: 0.1 to 1 µM for the first, less than 0.1 µM for the second. The second is the more potent here.

First: COc1cc(N2CCN(CCS(C)(=O)=O)CC2)c(C)cc1Nc1nccc(-c2sc(C3CC3)nc2-c2cccc(NS(=O)(=O)c3c(F)cccc3F)c2)n1
Second: COc1cc(N2CCN(CCS(C)(=O)=O)CC2)c(C)cc1Nc1nccc(-c2sc(C(C)C)nc2-c2cccc(NS(=O)(=O)c3c(F)cccc3F)c2)n1
The IC50 of the first is higher: 0.1 to 1 µM for the first, less than 0.1 µM for the second. The second is the more potent here.

`Cc1cc(Nc2nccc(-c3sc(C(C)C)nc3-c3ccc(F)c(NS(=O)(=O)c4c(F)cccc4F)c3)n2)ccn1` and `CC(C)c1nc(-c2ccc(F)c(NS(=O)(=O)c3c(F)cccc3F)c2)c(-c2ccnc(Nc3ccnc(N4CCOCC4)c3)n2)s1` fall in the same range of IC50: 0.1 to 1 µM for the first, 0.1 to 1 µM for the second.

Compared with `COc1ccc(Nc2nccc(-c3sc(C(C)C)nc3-c3cccc(NS(=O)(=O)Cc4ccccc4)c3)n2)cc1N1CCN(CCS(C)(=O)=O)CC1`, `CC(C)c1nc(-c2cccc(NS(=O)(=O)c3ccccc3)c2)c(-c2ccnc(Nc3ccc(F)c(N4CCN(CCS(C)(=O)=O)CC4)c3)n2)s1` is higher in IC50: less than 0.1 µM for the first, 0.1 to 1 µM for the second. The first is the more potent here.

`CC(C)c1nc(-c2cccc(NS(=O)(=O)c3c(F)cccc3F)c2)c(-c2ccnc(Nc3ccc(OC4CCN(CCS(C)(=O)=O)CC4)c(F)c3)n2)s1` and `CC(C)c1nc(-c2cccc(NS(=O)(=O)c3c(F)cccc3F)c2)c(-c2ccnc(Nc3ccc(N4CCN(CCF)CC4)c(F)c3)n2)s1` fall in the same range of IC50: 0.1 to 1 µM for the first, 0.1 to 1 µM for the second.

Compared with `COc1cc(N2CCN(CCS(C)(=O)=O)CC2)c(C)cc1Nc1nccc(-c2sc(C(C)C)nc2-c2cccc(NS(=O)(=O)c3cccnc3)c2)n1`, `COc1cc(N2CCN(CCS(C)(=O)=O)CC2)c(C)cc1Nc1nccc(-c2sc(C(C)C)nc2-c2cccc(NS(=O)(=O)c3cccs3)c2)n1` is lower in IC50: 0.1 to 1 µM for the first, less than 0.1 µM for the second. The second is the more potent here.

`CC(C)c1nc(-c2ccc(F)c(NS(=O)(=O)c3ccccc3C#N)c2)c(-c2ccnc(Nc3ccc(N4CCOCC4)nc3)n2)s1` and `Cc1ccc(-c2nc(C(C)C)sc2-c2ccnc(Nc3ccc(N4CCOCC4)nc3)n2)cc1NS(=O)(=O)c1c(F)cccc1F` fall in the same range of IC50: 0.1 to 1 µM for the first, 0.1 to 1 µM for the second.

`CCNc1nc(-c2cccc(NS(=O)(=O)c3c(F)cccc3F)c2)c(-c2ccnc(Nc3cc(C)c(N4CCN(CCS(C)(=O)=O)CC4)cc3OC)n2)s1` and `COc1cc(N2CCN(CCS(C)(=O)=O)CC2)c(C)cc1Nc1nccc(-c2sc(N3CCOCC3)nc2-c2cccc(NS(=O)(=O)c3c(F)cccc3F)c2)n1` cannot be ordered by IC50: less than 0.1 µM for the first, less than 0.1 µM for the second.

`CC(C)c1nc(-c2cccc(NS(=O)(=O)c3cccnc3)c2)c(-c2ccnc(Nc3ccc(N4CCOCC4)nc3)n2)s1` and `CC(C)c1nc(-c2cccc(NS(=O)(=O)c3c(F)cccc3F)c2)c(-c2ccnc(Nc3ccc(N4CCN5CCOC[C@H]5C4)nc3)n2)s1` fall in the same range of IC50: 0.1 to 1 µM for the first, 0.1 to 1 µM for the second.

`CCc1nc(-c2ccc(F)c(NS(=O)(=O)c3ccccc3)c2)c(-c2ccnc(Nc3ccc(N4CCN(C(C)C)CC4)cc3OC)n2)s1` and `CC(C)c1nc(-c2cccc(NS(=O)(=O)c3c(F)cccc3F)c2)c(-c2ccnc(Nc3ccc(N4CCN(C(C)C)CC4)cc3O)n2)s1` fall in the same range of IC50: 0.1 to 1 µM for the first, 0.1 to 1 µM for the second.

Compared with `COc1cc(N2CCN(CCS(C)(=O)=O)CC2)c(C)cc1Nc1nccc(-c2sc(C(C)C)nc2-c2cccc(NS(=O)(=O)c3c(F)cccc3F)c2F)n1`, `CC(C)c1nc(-c2ccc(F)c(NS(=O)(=O)c3c(F)cccc3F)c2)c(-c2ccnc(Nc3ccc(N4CCN(CCS(C)(=O)=O)CC4)c(F)c3)n2)s1` is higher in IC50: less than 0.1 µM for the first, 0.1 to 1 µM for the second.

First: O=S(=O)(Nc1cccc(-c2nc(N3CCCC3)sc2-c2ccnc(Nc3ccc(N4CCN(CCF)CC4)c(F)c3)n2)c1)c1c(F)cccc1F
Second: CC(C)c1nc(-c2ccc(F)c(NS(=O)(=O)c3c(F)cccc3F)c2)c(-c2ccnc(Nc3ccc(N4CCN(CCF)CC4)c(F)c3)n2)s1
The IC50 of the first is lower: less than 0.1 µM for the first, 0.1 to 1 µM for the second.

`COc1cc(N2CCN(CCF)CC2)ccc1Nc1nccc(-c2sc(C(C)C)nc2-c2cccc(NS(=O)(=O)c3c(F)cccc3F)c2)n1` and `CC(C)c1nc(-c2ccc(F)c(NS(=O)(=O)c3ccccc3F)c2)c(-c2ccnc(Nc3ccc(N4CCN(CCS(C)(=O)=O)CC4)c(F)c3)n2)s1` fall in the same range of IC50: 0.1 to 1 µM for the first, 0.1 to 1 µM for the second.

`O=S1(=O)Cc2ccc(Nc3nccc(-c4sc(N5CCOCC5)nc4-c4cccc(NS(=O)(=O)c5c(F)cccc5F)c4F)n3)cc2C1` and `O=S(=O)(Nc1cccc(-c2nc(N3CCOCC3)sc2-c2ccnc(Nc3ccc(N4CCOCC4)nc3)n2)c1F)c1c(F)cccc1F` fall in the same range of IC50: 0.1 to 1 µM for the first, 0.1 to 1 µM for the second.

`CS(=O)(=O)CCN1CCN(c2ccc(Nc3nccc(-c4oc(N5CCCC5)nc4-c4cccc(NS(=O)(=O)c5c(F)cccc5F)c4F)n3)cc2F)CC1` and `CC(C)c1nc(-c2ccc(F)c(NS(=O)(=O)c3c(F)cccc3F)c2)c(-c2ccnc(Nc3cccc(CCS(N)(=O)=O)c3)n2)s1` fall in the same range of IC50: 0.1 to 1 µM for the first, 0.1 to 1 µM for the second.

Work on `CC(=O)N1CCN(c2ccc(Nc3nccc(-c4sc(C(C)C)nc4-c4cccc(NS(=O)(=O)c5cn(C)cn5)c4)n3)cn2)CC1` yielded an IC50 of less than 0.1 µM.
